The values below come from patent publication US5935954A, “Compounds with improved multi-drug resistance activity” (Vertex Pharmaceuticals Incorporated, priority 1997, dated 1999).

A value given as a limit tells only on which side of the number the result lay.

Chain of FKBP12 (P62942 whole entry, species assumed): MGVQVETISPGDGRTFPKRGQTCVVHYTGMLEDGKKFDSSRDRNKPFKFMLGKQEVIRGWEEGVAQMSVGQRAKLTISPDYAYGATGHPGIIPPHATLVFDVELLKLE

The target of this experiment is FKBP12 (Homo sapiens, UniProt P62942). Nature of the experiment: FKBP12 binding assay (inhibition of rotomase activity). The experiment is classed as biochemical. Conditions: apparent Ki. The source says:
Preferably, the assay measures inhibition of FKBP12 rotomase activity. Such an assay has also been described by M. W. Harding et al., supra and by J. J. Siekierka et al., supra. In this assay the isomerization of an artificial substrate--N-succinyl-Ala-Ala-Pro-Phe-p-nitroanilide--is followed spectrophotometrically. The assay includes the cis form of the substrate, FKBP12, the inhibitor and chymotrypsin. Chymotrypsin is able to cleave p-nitroanilide from the trans form of the substrate, but not the cis form. Release of p-nitroanilide is measured.
The inhibition of FKBP rotomase activity by the preferred FKBP12 binding compounds present in the compositions of this invention was assayed. In this assay various quantities of FKBP12 binding compound (0nM-10 μM) were added to cis-N-succinyl-Ala-Ala-Pro-Phe-p-nitroanilide in the presence of FKBP12 and chymotrypsin. FKBP12 converts the cis form of the substrate to the trans form. This allows chymotrypsin to cleave p-nitroanilide from the substrate. Release of p-nitroanilide was measured spectrophotometrically. This assay allowed me to measure the change in the first order rate constant of the rotomase activity as a function of FKBP12 binding compound concentration and yielded an estimate of apparent Ki.
With `COc1cc(C(=O)C(=O)N2CCCC[C@H]2C(=O)O[C@@H](CCCc2ccccc2)c2cncc(-c3c(OC)cccc3OC)c2)cc(OC)c1OC` [Compound 25], the Ki was found to be 30 nM.
As for `CC/C=C(/c1cccnc1)c1cccc([C@@H](CCCc2ccccc2)OC(=O)[C@@H]2CCCCN2C(=O)C(=O)c2cc(OC)c(OC)c(OC)c2)c1` [Compound 29], the Ki was found to be 1 nM.
Consider `CCC/C=C(\c1cccnc1)c1cccc([C@H](CCN2CCOCC2)OC(=O)[C@@H]2CCCCN2C(=O)C(=O)c2cc(OC)c(OC)c(OC)c2)c1` [Compound 31], for which the Ki came out at 130 nM.
On to `COc1cc(C(=O)C(=O)N2CCCC[C@H]2C(=O)O[C@@H](/C(C)=C/[C@H]2CC[C@H](O)CC2)c2cncc(-c3c(OC)cccc3OC)c2)cc(OC)c1OC` [Compound 33], for which the Ki is 12 nM.
As for `CCCC/C=C(/c1cccnc1)c1cccc([C@@H](CCN2CCOCC2)OC(=O)[C@@H]2CCCCN2C(=O)C(=O)c2cc(OC)c(OC)c(OC)c2)c1` [Compound 34], the Ki is 6 nM.
For `CCCC/C=C(/c1cccnc1)c1cccc([C@H](CCN2CCOCC2)OC(=O)[C@@H]2CCCCN2C(=O)C(=O)c2cc(OC)c(OC)c(OC)c2)c1` [Compound 35], the Ki was 380 nM.
Consider `CCCC/C=C(/c1cccnc1)c1cccc([C@H](CCCc2ccccc2)OC(=O)[C@@H]2CCCCN2C(=O)C(=O)c2cc(OC)c(OC)c(OC)c2)c1` [Compound 36], for which the Ki is more than 30 nM.
As for `CCCC/C=C(/c1cccnc1)c1cccc([C@@H](CCCc2ccccc2)OC(=O)[C@@H]2CCCCN2C(=O)C(=O)c2cc(OC)c(OC)c(OC)c2)c1` [Compound 37], the Ki is less than 1 nM.
Take `CCC/C=C(/c1ccc(C)cc1)c1cncc([C@@H](OC(=O)[C@@H]2CCCCN2C(=O)C(=O)c2ccc(F)cc2)/C(C)=C/[C@H]2CC[C@H](O)CC2)c1` [Compound 38]: the Ki was found to be 70 nM.
Turning to `CCC/C=C(/c1ccc(C)cc1)c1cncc([C@H](OC(=O)[C@@H]2CCCCN2C(=O)C(=O)c2ccc(F)cc2)/C(C)=C/[C@H]2CC[C@H](O)CC2)c1` [Compound 39], the Ki turned out to be 45 nM.
For `COCc1cccc(COC)c1-c1cncc([C@H](OC(=O)[C@@H]2CCCCN2C(=O)C(=O)c2ccco2)/C(C)=C/[C@H]2CC[C@H](O)CC2)c1` [Compound 41], the Ki came out at 67 nM.
With `CCC/C=C(\c1cncc([C@@H](OC(=O)[C@@H]2CCCCN2C(=O)C(=O)c2ccc(F)cc2)/C(C)=C/[C@H]2CC[C@H](O)CC2)c1)C1CCCCC1` [Compound 42] the figure was 2100 nM.
With `CCOCc1cc2ccccc2n1-c1cccc([C@H](OC(=O)[C@@H]2CCCCN2C(=O)C(=O)c2ccco2)/C(C)=C/[C@H]2CC[C@H](O)CC2)c1` [Compound 44], the Ki was 53 nM.
In the case of `CCC/C=C(\c1cncc([C@@H](OC(=O)[C@@H]2CCCCN2C(=O)C(=O)c2ccco2)/C(C)=C/[C@H]2CC[C@H](O)CC2)c1)C1CCCCC1` [Compound 45], the Ki is 230 nM.
Then `CCC/C=C(\c1cncc([C@H](OC(=O)[C@@H]2CCCCN2C(=O)C(=O)c2ccco2)/C(C)=C/[C@H]2CC[C@H](O)CC2)c1)C1CCCCC1` [Compound 46], with 100 nM; and `COC/C=C(\c1cncc([C@H](OC(=O)[C@@H]2CCCCN2C(=O)C(=O)c2ccco2)/C(C)=C/[C@H]2CC[C@H](O)CC2)c1)C1CCCCC1` [Compound 47], with 84 nM.
In the case of `COC/C=C(\c1cncc([C@@H](OC(=O)[C@@H]2CCCCN2C(=O)C(=O)c2ccco2)/C(C)=C/[C@H]2CC[C@H](O)CC2)c1)C1CCCCC1` [Compound 48], the Ki stood at 120 nM.
Consider `CCOCc1cccc(COCC)c1-c1csc(C(CCN2CCOCC2)OC(=O)[C@@H]2CCCCN2C(=O)C(=O)C(C)(C)COC)c1` (stereo partly shown) [Compound 49], for which the Ki was more than 10000 nM.
For the compound `CCOCc1cccc(COCC)c1-c1csc(C(CCN2CCOCC2)OC(=O)[C@@H]2CCCCN2C(=O)C(=O)C(C)(C)COC)c1` (stereo partly shown) [Compound 50], the Ki was more than 10000 nM.
`COCc1cccc(COC)c1-c1cncc([C@H](OC(=O)[C@@H]2CCCCN2C(=O)C(=O)C(C)(C)COC)/C(C)=C/[C@H]2CC[C@H](O)CC2)c1` [Compound 51]: the Ki was more than 10000 nM.
`C=CCC/C=C(/c1cccnc1)c1ccc([C@H](OC(=O)[C@@H]2CCCCN2C(=O)C(=O)C(C)(C)C)/C(C)=C/C2CCN(C)CC2)s1` [Compound 53]: the Ki was determined as 70 nM.
Take `C=CCC/C=C(/c1cccnc1)c1ccc([C@@H](OC(=O)[C@@H]2CCCCN2C(=O)C(=O)C(C)(C)COC)/C(C)=C/C2CCN(C)CC2)s1` [Compound 55]: the Ki is more than 10000 nM.
With `C=CCC/C=C(/c1cccnc1)c1ccc([C@H](OC(=O)[C@@H]2CCCCN2C(=O)C(=O)C(C)(C)COC)/C(C)=C/C2CCN(C)CC2)s1` [Compound 56], the Ki is more than 5000 nM.
In the case of `CCOCc1cc2ccccc2n1-c1cccc([C@H](OC(=O)[C@@H]2CCCCN2C(=O)C(=O)C2(O)CCOCC2)/C(C)=C/[C@H]2CC[C@H](O)CC2)c1` [Compound 57], the Ki amounted to 930 nM.
For `CCOCc1cc2ccccc2n1-c1cccc([C@H](OC(=O)[C@@H]2CCCCN2C(=O)C(=O)C(C)(C)COC)/C(C)=C/[C@H]2CC[C@H](O)CC2)c1` [Compound 58], the Ki was more than 9000 nM.
As to `COC/C=C(\c1cncc([C@H](OC(=O)[C@@H]2CCCCN2C(=O)C(=O)CC(C)C)/C(C)=C/[C@H]2CC[C@H](O)CC2)c1)C1CCCCC1` [Compound 60], the Ki is 57 nM.
In the case of `CCOCc1cccc(COCC)c1-c1csc([C@@H](CCN2CCOCC2)OC(=O)[C@@H]2CCCCN2C(=O)C(=O)C(C)(C)C)c1` [Compound 62], the Ki was found to be 100 nM.
`CCOCc1cccc(COCC)c1-c1csc([C@@H](CCN2CCOCC2)OC(=O)[C@@H]2CCCCN2C(=O)C(=O)C(C)(C)C)c1` [Compound 63]: the Ki is more than 5000 nM.
With `CCOCc1cccc(COCC)c1-c1csc([C@H](CCN2CCOCC2)OC(=O)[C@@H]2CCCCN2C(=O)C(=O)C(C)(C)C)c1` [Compound 64], the Ki was 340 nM.
Turning to `CCOCc1cc2ccccc2n1-c1cccc([C@H](OC(=O)[C@@H]2CCCCN2C(=O)C(=O)C2(O)CCOCC2)/C(C)=C/[C@H]2CC[C@H](O)CC2)c1` [Compound 65], the Ki was determined as 490 nM.
With `C=CCC/C=C(\c1ccc([C@@H](CCN2CCOCC2)OC(=O)[C@@H]2CCCCN2C(=O)C(=O)CC(C)C)s1)C1CCOCC1` [Compound 66] the figure was 55 nM.
For the compound `CCOCc1cccc(COCC)c1-c1cncc(C(OC(=O)[C@@H]2CCCCN2C(=O)C(=O)C(C)(C)C)/C(C)=C/c2ccncc2)c1` (stereo partly shown) [Compound 67], the Ki stood at 270 nM.
`CCOCc1cccc(COCC)c1-c1cncc(C(OC(=O)[C@@H]2CCCCN2C(=O)C(=O)C2CCOCC2)/C(C)=C/c2ccncc2)c1` (stereo partly shown) [Compound 68]: the Ki is more than 5000 nM.
`C=CCC/C=C(\c1ccc([C@H](CCN2CCOCC2)OC(=O)[C@@H]2CCCCN2C(=O)C(=O)CC(C)C)s1)C1CCOCC1` [Compound 69]: the Ki was 745 nM.
Then `C=CCC/C=C(\c1ccc([C@@H](CCN2CCOCC2)OC(=O)[C@@H]2CCCCN2C(=O)C(=O)C(C)(C)C)s1)C1CCOCC1` [Compound 70], with 45 nM; and `C=CCC/C=C(/c1cccnc1)c1ccc([C@@H](OC(=O)[C@@H]2CCCCN2C(=O)C(=O)CC(C)C)/C(C)=C/C2CCN(C)CC2)s1` [Compound 71], with 364 nM.
Then `C=CCC/C=C(/c1cccnc1)c1ccc([C@H](OC(=O)[C@@H]2CCCCN2C(=O)C(=O)CC(C)C)/C(C)=C/C2CCN(C)CC2)s1` [Compound 72], with 225 nM.
